Measured values published in patent US12195771B2, “Combination chemotherapy for the treatment of cancer” (WISCONSIN ALUMNI RESEARCH FOUNDATION, priority 2017, dated 2025).

What was measured:
[1] = system: human lung cancer cells (A549); assay: Assay of cell viability with a single drug (tetrazolium dye-based MTS assay), A549; conditions: single agent, 48 h, value ± SE, n = 3
Description: To test this hypothesis, we treated human lung cancer cells for 48 h with trametinib or with three other kinase inhibitors: PD 0332991 (which is a CDK4/CDK6 inhibitor), bosutinib (which is a Src family kinase inhibitor), or crizotinib (which is an ALK inhibitor) (Boschelli et al., 2001; Fry et al., 2004; Zou et al., 2007). We measured cell viability with a tetrazolium dye-based assay for metabolic activity. The ensuing EC50 values are listed in a Table 1 and in the table in FIG. 10.
(§1) Cells in complete growth medium were plated at 5,000 cells per well in a 96-well microplate, which was incubated for 24 h. […] After 48 h, the medium was removed, and cells were incubated for 2 h with CellTiter 96® MTS reagent from Promega. Absorbance was recorded on an M1000 fluorimeter from Tecan (Morrisville, NC) at 490 nm. Data were analyzed with Prism 5.0 software from GraphPad (La Jolla, CA). Values of EC50, which is the concentration of a drug that gives half-maximal cell viability, were calculated with the equation: […]
(§2) where y is cell viability, x is the concentration of drug, and h is the Hill coefficient. Data were plotted on a log scale with each data point being the mean of 3 biological replicates.

[2] = system: human A549 lung cancer cells; assay: Assay of cell viability with two drugs (kinase inhibitor + ptRNase), A549; format: cell-based; conditions: for Synergism with ptRNase?: A549 cells, two-drug combination with ptRNase
Description: We measured cell viability with a tetrazolium dye-based assay for metabolic activity.
We used the EC50 values obtained from single-drug treatment (Table 1) to design subsequent drug combination experiments. Two-drug combination experiments were performed using a 5×5 matrix to interrogate 25 concentration ratios per combination.
(§3) The EC50 values obtained from single-drug cell viability assays were used to design subsequent drug combination experiments. Two-drug combination experiments were performed by using a 5×5 matrix in 96-well plates to interrogate 25 dosing pairs. Cells in complete growth medium were plated at 5,000 cells per well in a 96-well microplate, which was incubated for 24 h at 37° C. […] After 48 h, cell viability was evaluated as described above.
(§4) The dose-effect curve for each drug was determined based on experimental observations and was compared to the effect afforded by the two-drug combination to derive a CI value. The CI values for all combinations were calculated using CalcuSyn 2.0 from Biosoft (Cambridge, UK). […] Each CI value was the mean of the results from 3 biological replicates.

H358 cells (KRAS G12C) [3] = assay: Assay of cell viability with two drugs (ARS-853 + ptRNase), H358; format: cell-based, human; conditions: 5×5 matrix, CI (FIG. 4C)
Description: as §3, §4

G12C variant of KRAS = G12C variant of KRAS (Homo sapiens, UniProt P01116, G12C); conditions: Patricelli et al., 2016, Lito et al.; cited from earlier work
Sequence of G12C variant of KRAS (P01116 1-188 isoform P01116-2 G12C): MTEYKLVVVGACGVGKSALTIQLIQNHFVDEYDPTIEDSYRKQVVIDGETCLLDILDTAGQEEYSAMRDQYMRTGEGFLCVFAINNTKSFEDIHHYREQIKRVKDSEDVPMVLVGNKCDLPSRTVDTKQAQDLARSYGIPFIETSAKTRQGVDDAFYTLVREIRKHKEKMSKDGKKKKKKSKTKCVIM

[4] = system: phosphorylation of MEK, ERK, RSK and RI in SK-MEL-28 cells; assay: Immunoblotting and pull-down of biotinylated RI after kinase inhibitor treatment; format: cell-based, human; conditions: for phosphorylation of MEK / phosphorylation of ERK and RSK: SK-MEL-28, 24 h; for phosphorylation of MEK: bosutinib 5 μM, crizotinib 2 μM, PD 0332991 2 μM, selumetinib 10 nM, dabrafenib 10 nM, trametinib 1 nM; for phosphorylation of ERK and RSK: same inhibitor concentrations as FIG. 6; for phosphorylation of RI (α-pSer, α-pThr): biotinylated RI captured from SK-MEL-28 cells, 24 h inhibitor treatment
Description: FIGS. 6A-6B are immunoblots showing that inhibition of the ERK pathway prevents the phosphorylation of RI in SK-MEL-28 cells. Cells transfected to produce biotinylated RI were treated with bosutinib (5 μM), crizotinib (2 μM), PD 0332991 (2 μM), selumetinib (10 nM), dabrafenib (10 nM), or trametinib (1 nM) for 24 h. (A) Treatment with inhibitors of non-ERK pathway kinases has no effect on the phosphorylation of MEK, ERK, or RSK in cell lysates. Treatment with dabrafenib reduces the phosphorylation of MEK (α-pMEK ½ lane) as well as that of ERK and RSK (α-pERK ½, and α-pRSK lanes). Treatment with selumetinib and trametinib reduces the phosphorylation of ERK and RSK. (B) Treatment with inhibitors of non-ERK pathway kinases has no effect on phosphorylation of biotinylated RI, which was captured by using streptavidin-coated magnetic beads. Inhibition of ERK-pathway kinases diminishes phosphorylation of RI (α-pThr, and α-pSer lanes).
The inventors further confirmed the apparent effect of kinase inhibitors on RI phosphorylation by immunoblotting. Biotinylated RI was isolated by using streptavidin-coated magnetic beads from SK-MEL-28 cells after transient transfection for 48 h. To detect phosphorylated species, we used α-pSer or α-pThr. […] These biochemical data provide direct evidence that kinases in the ERK pathway are indeed responsible for phosphorylating RI, in agreement with the observed synergism.
Cells grown in a 10-cm dish were lysed with 1 mL of M-PER™ Mammalian Protein Extraction Reagent (a mammalian protein extraction reagent that contains a mild, nondenaturing detergent) containing PIERCE™ Protease Inhibitor Tablets (tablets containing protease inhibitors AEBSF, aprotinin, bestatin, E-64, leupeptin, and pepstatin A), PIERCE™ Phosphatase Inhibitor Tablets (sodium fluoride, sodium orthovanadate, sodium pyrophosphate, and beta-glycerophosphate for broad-spectrum inhibition of phosphatase activity), and DTT (1 mM). Cell lysates were subjected to centrifugation for 10 min at 14,000 g to remove cell debris, and the total protein concentration in the supernatant was determined with a Bradford protein assay. Protein (˜30 μg) was separated by SDS-PAGE using a gel from Biorad (Hercules, CA), and the resulting gel was subjected to transfer to a PVDF membrane with an IBLOT® 2 (a dry transfer device that performs western blotting transfer without the need for liquid buffers) dry transfer system. The membrane was blocked for 1 h in a solution of BSA (5% w/v) in TBS-Tween (TBS-T), washed, and then incubated overnight at 4° C. with an antibody (1:500 dilution) in TBS-T containing BSA (5% w/v). After another wash with TBS-T, membranes were incubated with secondary antibody (1:3000 dilution), washed again, and then detected with an Amersham ECL Select Western Blotting Detection Reagent and by an ImageQuant™ LAS4000 instrument from GE Healthcare (Marlborough, MA).
For pull-down assays, after isolation of the total protein, samples were incubated overnight at 4° C. with Streptavidin […]® (magnetic particles coated with streptavidin) Paramagnetic Particles from Promega. The beads were washed (3×) with PBS containing 1 mM DTT. Samples were eluted with 50 μL of SDS gel-loading dye and processed further for immunoblotting.

[5] = system: human melanoma cells (SK-MEL-28, A375, Malme-3M); assay: Assay of cell viability with two drugs, melanoma cell lines; format: cell-based; conditions: across three melanoma cell lines (FIG. 5)
Description: None of the agents were toxic to normal skin fibroblasts at the tested doses (FIG. 10).
as §3, §4

V600E/K variants of BRAF = conditions: Kefford et al., 2010; King et al., 2013; cited from earlier work
H358 cells (KRAS G12C) [6] = assay: Assay of cell viability with a single drug (MTS assay), H358; format: cell-based, human
Description: as §1, §2

EC50 ([1]; Homo sapiens)	Molecule	Synergism with ptRNase? [2]	phosphorylation of MEK [4]	phosphorylation of ERK and RSK [4]	phosphorylation of RI (α-pSer, α-pThr) [4]	further results
0.24 ± 0.04 µM	CC(=O)c1c(C)c2cnc(Nc3ccc(N4CCNCC4)cn3)nc2n(C2CCCC2)c1=O [PD 0332991]	No	insignificant effects	insignificant effects	Strong bands for phosphorylated RI	–
43 ± 5 µM	Cn1cnc2c(F)c(Nc3ccc(Br)cc3Cl)c(C(=O)NOCCO)cc21 [Selumetinib]	–	–	–	–	–
5.7 ± 0.6 µM	CC(=O)Nc1cccc(-n2c(=O)n(C3CC3)c(=O)c3c(Nc4ccc(I)cc4F)n(C)c(=O)c(C)c32)c1 [Trametinib]	–	–	–	–	–

Further lines, the molecule ahead of its results:

Molecule	EC50 ([1]; Homo sapiens)	Synergism with ptRNase? [2]	phosphorylation of MEK [4]	phosphorylation of ERK and RSK [4]	phosphorylation of RI (α-pSer, α-pThr) [4]	further results
C=CC(=O)N1CC(N2CCN(C(=O)CNc3cc(C4(C)CC4)c(Cl)cc3O)CC2)C1 [ARS-853]	–	Yes	–	–	–	EC50 [1]: 74 ± 8 µM; synergy with the ptRNase judged by combination index (CI) ([2]; A549, 5×5 concentration matrix, kinase inhibitor 1 h then ptRNase, 48 h): additive effect; effect of combination with the ptRNase (H358 cells (KRAS G12C) [3]): enhanced the efficacy of both agents; cellular inhibitory activity against the G12C variant of KRAS (G12C variant of KRAS): robust cellular inhibitory activity
COc1cc(Nc2c(C#N)cnc3cc(OCCCN4CCN(C)CC4)c(OC)cc23)c(Cl)cc1Cl [Bosutinib]	0.73 ± 0.06 µM	–	–	–	–	–
C[C@@H](Oc1cc(-c2cnn(C3CCNCC3)c2)cnc1N)c1c(Cl)ccc(F)c1Cl [Crizetinib]	0.11 ± 0.02 µM	–	insignificant effects	insignificant effects	Strong bands for phosphorylated RI	–
CC(C)(C)c1nc(-c2cccc(NS(=O)(=O)c3c(F)cccc3F)c2F)c(-c2ccnc(N)n2)s1 [Dabrafenib]	40 ± 5 µM	Yes	only a weak band of phosphorylated MEK	no detectable phosphorylation	no detectable phosphorylation	effect of combination with trametinib (without ptRNase) [5]: additive effect; synergy of combination with the ptRNase [5]: strong synergy; inhibitory activity against the V600E/K variants of BRAF (V600E/K variants of BRAF): robust inhibitory activity
R4C/G38R/R39G/N67R/G89R/S90R/V118C RNase 1 (protein, UniProt P07998 29-156, looked up, variant R4C G38R R39G N67R G89R S90R V118C, gift from Quintessence Biosciences) Ribonuclease pancreatic: KESCAKKFQRQHMDSDSSPSSSSTYCNQMMRRRNMTQRGCKPVNTFVHEPLVDVQNVCFQEKVTCKRGQGNCYKSNSSMHITDCRLTNRRRYPNCAYRTSPKERHIIVACEGSPYVPCHFDASVEDST	–	–	–	–	–	EC50 [1]: 62 ± 7 µM; EC50 (H358 cells (KRAS G12C) [6]; H358 cells (KRAS G12C), single agent, mean ± SEM, n = 3): 3.6 ± 0.6 µM; cytotoxicity to H358 cells compared to A549 cells (H358 cells (KRAS G12C) [6]; H358 versus A549): 20 fold
